Test results as given in article PMC11355195 (Life, 2024).
Values after ≈ are worked out from the molar mass of the structure shown.

Key:
DPPH scavenging capacity = conditions: 0.1 mM DPPH
Protocol: The method utilized to test the compound’s efficacy in scavenging DPPH radicals was based on protocols detailed in references, with minor changes. The test was completed in duplicate for each concentration. A solution of 0.1 mM DPPH (2,2-diphenyl-1-picrylhydrazyl) was produced, and the compounds were evaluated at different concentrations ranging from 1 to 500 µg/mL. Ascorbic acid served as the positive control with concentrations ranging from 0.01 to 300 µg/mL [35].

[1] = Oxygen radical absorbance capacity (ORAC); conditions: Trolox equivalents
Protocol: The ORAC (Oxygen Radical Absorbance Capacity) test was carried out using a modified version of the procedure reported by Huang et al.. This test examines the antioxidant capacity of compounds by examining their ability to neutralize oxygen radicals. The method was carried out utilizing a 96-well microplate format. First, 150 µL of fluorescein solution, produced as 8 × 10^−8 M fluorescein in 0.075 M phosphate buffer (pH 7.4), were dispersed to each well. Fluorescein is a fluorescent probe whose fluorescence lowers when it reacts with radicals. Next, 25 µL of the substance or mixture to be evaluated was added to the corresponding wells. Wells containing 25 µL of phosphate buffer served as blanks, and wells containing 25 µL of Trolox solution (from 10 to 100 µm) were utilized as standards. Control wells containing 50 µL phosphate buffer without any radicals were also added to provide a baseline. The reaction was initiated by adding 25 µL of a freshly produced solution of AAPH (2,2′-azobis(2-methylpropionamidine) dihydrochloride) at a concentration of 165.94 mM in phosphate buffer to each well, except for the control wells, at a temperature of 37 °C. AAPH creates peroxyl radicals that induce oxidative stress in the fluorescein solution, simulating free-radical attack. […] The fluorescence in-tensity of the mixture was then monitored at regular intervals for 120 min.

[2] = tested on: peripheral blood mononuclear cells (PBMC); assay: MTT cell viability, PBMC (normal cell control); format: cell-based; conditions: PBMC, MTT test, 72 h of treatment (Figure 3), read-out: IC50 Value ± SD, PBMC
Protocol: This approach determines cell viability based on the ability of living cells to decrease MTT to a purple, water-insoluble formazan product. Cells were planted in 96-well plates at a density of 1 × 10^4 cells per well in 100 μL of complete culture media, which provides all necessary nutrients for cell growth. […] The cells were then treated with the compounds for 24, 48, and 72 h to determine the effect on cell viability over varied time intervals. Following each incubation time, 20 μL of MTT solution (at a concentration of 5 mg/mL in PBS) were applied to each well. The plates were further incubated for 4 h at 37 °C, during which time live cells decrease the MTT to formazan, creating purple crystals. At the end of the incubation, the medium containing the MTT was carefully aspirated, leaving only the formazan crystals in the bottom of the wells. To dissolve these crystals, 100 μL of DMSO were administered to each well. […] This formula quantifies the reduction in cell viability in response to the treatments compared to the control. […] Cisplatin, a known anticancer drug, was used as a reference drug at varying concentrations from 0.01 to 50 µg/mL.

5-LOX = biological target: T1, 5-LOX (Glycine max, UniProt P08170); assay: 5-Lipoxygenase (5-LOX) inhibition
T1 sequence (P08170 1-839): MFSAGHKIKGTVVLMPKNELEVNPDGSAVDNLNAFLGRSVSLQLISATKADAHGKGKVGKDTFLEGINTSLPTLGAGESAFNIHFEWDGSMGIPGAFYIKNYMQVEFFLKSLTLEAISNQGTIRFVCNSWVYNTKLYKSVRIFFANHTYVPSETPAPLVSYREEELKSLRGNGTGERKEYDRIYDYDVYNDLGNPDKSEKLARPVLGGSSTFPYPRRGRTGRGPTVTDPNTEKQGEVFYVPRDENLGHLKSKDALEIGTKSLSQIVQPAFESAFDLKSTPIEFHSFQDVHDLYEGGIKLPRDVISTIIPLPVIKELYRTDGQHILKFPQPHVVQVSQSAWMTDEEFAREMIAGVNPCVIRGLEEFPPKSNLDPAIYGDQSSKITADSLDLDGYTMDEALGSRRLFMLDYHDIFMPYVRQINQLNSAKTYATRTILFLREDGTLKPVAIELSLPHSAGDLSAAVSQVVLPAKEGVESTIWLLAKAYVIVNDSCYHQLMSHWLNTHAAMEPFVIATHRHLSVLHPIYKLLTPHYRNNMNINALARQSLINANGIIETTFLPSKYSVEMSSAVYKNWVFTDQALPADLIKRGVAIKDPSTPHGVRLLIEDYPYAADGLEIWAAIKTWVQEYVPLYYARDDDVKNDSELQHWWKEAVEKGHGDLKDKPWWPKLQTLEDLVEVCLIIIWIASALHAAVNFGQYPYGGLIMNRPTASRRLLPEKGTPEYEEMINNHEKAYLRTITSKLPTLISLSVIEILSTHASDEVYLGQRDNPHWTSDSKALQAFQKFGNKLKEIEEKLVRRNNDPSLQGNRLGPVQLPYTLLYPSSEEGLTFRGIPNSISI
Source text: The % inhibition of hydrogen peroxide formation, an indication of lipoxygenase inhibitory action, was computed according to the formula: Inhibition percentage%=Acontrol−Ablank−Asample−Ablank/Acontrol−Ablank where Acontrol, Ablank and ASample represent the absorbances of the control well, blank, and test sample, respectively.

- DPPH Scavenging Capacity IC50 (DPPH scavenging capacity): 161.02 ± 6.89 µg/mL
- IC50 (5-LOX): 308 µM
Compound: Cc1ccc(C(C)C)c(O)c1 [Thymol, 2-isopropyl-5-methylphenol]
- Oxygen Radical Absorbance Capacity [1]: 2.341 ± 0.009 mmol TE/g
- IC50 [2]: 307 ± 3.48 µg/mL (≈ 2050 µM)
